Test results taken from patent publication US20230390277A1, “METHODS TO SENSITIZE TUMORS TO TREATMENT BY IMMUNOTHERAPY” (Ohio State Innovation Foundation, priority 2020, published 2023).

Columns and labels:
[1] = system: pODD-Luc reporter in MP2 pODD cells; test: in vitro luciferase assay, MP2 pODD cells; assay type: cell-based, human; conditions: 16 hours, 1 mM
Protocol: (§1) PCR-amplified cassette was then digested with Asci and Pmel restriction enzymes and ligated into pLenti-C-Myc-DDK-IRES-Puro. Correct orientation and sequence was confirmed by Sanger DNA sequencing. HeLa pODD and MIP2 pODD transfectants were selected with 2 μg/ml Puromycin for two weeks. Stable MP2 CMV Cells were generated by lentiviral transduction of MP2 cells with pLenti-CMV-Puro-Luc lentiviral vector (Addgene#17477) with 2 Puromycin selection for two weeks. Cells were grown in Dulbecco's Modified Eagle's Medium (DMEM) containing 25 mM D-glucose, 4 mM glutamine and 44 mM sodium bicarbonate in 5% CO2, if not stated otherwise. The cells were exposed to hypoxia (1% O2) in H35 Hypoxic Workstation (Hypoxygen) with 5% CO2 at 37° C. In some experiments, we used a hypoxia mimetic dimethyloxalyglycine (DMOG) as described. Cell counts and cellular proliferation were established using hemocytometer to determine the cell number and trypan blue exclusion assay to establish the fraction of viable/dead cells. All human cell lines have been authenticated using STR profiling within the past 3 years. All experiments were performed with mycoplasma-free cells.
In vitro luciferase Assay. Proteins were extracted using Luciferase Assay Lysis Buffer (125 mM Tris-HCl, pH 7.5, 11.0 mM DTT, 10 mM EGTA, 50% Glycerol, 5% Triton X-100) and 200 μl/sample were transferred to 96-well plate and D-luciferin was added to the final concentration of 150 μg/ml immediately before the assay. Bioluminescence was measured on a Synergy H1 Hybrid Plate Reader (Biotek) after a 10-minute incubation period (10 slsample, Gain=150) in triplicates.

MP2 CMV cells = test: in vitro luciferase assay, MP2 CMV control cells; assay type: cell-based, human; conditions: 1 mM DMOG, constitutive CMV reporter
Protocol: as §1
In vitro luciferase Assay. […] Bioluminescence was measured on a Synergy H1 Hybrid Plate Reader (Biotek) after a 10-minute incubation period (10 slsample, Gain=150) in triplicates.

MP2 pODD flank tumors = test: in vivo bioluminescent imaging, heterotopic MP2 pODD flank tumors; design: species or system mouse
Protocol: In vivo bioluminescent imaging. […] For heterotopic flank tumor experiments, 1×10^6 HeLa pODD or 5×10^6 MP2 cells were injected subcutaneously (s.c.) into the flanks of 6-wk-old female (HeLa pODD) or male (N1P2 pODD or MP2 CMV) immunocompromised athymic nu/nu mice. Replicate experiments with groups of 4-6 mice were used for statistical reproducibility. Caliper measurements of opposing diameters were used to calculate the tumor volumes using the modified ellipsoidal formula: tumor volume=(length×width^2)[23]. Upon reaching 100 mm^3, the animals were given 100 mg/kg D-luciferin intraperitoneally and bioluminescence images were captured using IVIS In Vivo Imaging System Lumina II (Perkin Elmer Inc). […] Bioluminescent data were analyzed using living Image software (Perkin Elmer Inc) and calculated as photon flux/sec. Obtained individual photon flux peak values were then normalized to baseline for each mouse and averaged per group. Gas inhalation experiments were performed by switching medical air and carbogen gas sources for the IVIS anesthesia vaporizer. Initial baselines were established in medical air under anesthesia, then the mice were subjected to 30 minutes of either medical air or carbogen rebreathing in an air-tight chamber while awake. After 30 minutes, photon flux was established in respective gas sources as a carrier for isoflurane anesthesia.

PDE10A = target: T1, PDE10A (Homo sapiens, UniProt Q9Y233); test: PDE10A purified enzyme activity assay (BPS Bioscience); assay type: biochemical; conditions: dose response analysis
T1 construct: purchased BPS Bioscience
T1 sequence (Q9Y233 whole entry): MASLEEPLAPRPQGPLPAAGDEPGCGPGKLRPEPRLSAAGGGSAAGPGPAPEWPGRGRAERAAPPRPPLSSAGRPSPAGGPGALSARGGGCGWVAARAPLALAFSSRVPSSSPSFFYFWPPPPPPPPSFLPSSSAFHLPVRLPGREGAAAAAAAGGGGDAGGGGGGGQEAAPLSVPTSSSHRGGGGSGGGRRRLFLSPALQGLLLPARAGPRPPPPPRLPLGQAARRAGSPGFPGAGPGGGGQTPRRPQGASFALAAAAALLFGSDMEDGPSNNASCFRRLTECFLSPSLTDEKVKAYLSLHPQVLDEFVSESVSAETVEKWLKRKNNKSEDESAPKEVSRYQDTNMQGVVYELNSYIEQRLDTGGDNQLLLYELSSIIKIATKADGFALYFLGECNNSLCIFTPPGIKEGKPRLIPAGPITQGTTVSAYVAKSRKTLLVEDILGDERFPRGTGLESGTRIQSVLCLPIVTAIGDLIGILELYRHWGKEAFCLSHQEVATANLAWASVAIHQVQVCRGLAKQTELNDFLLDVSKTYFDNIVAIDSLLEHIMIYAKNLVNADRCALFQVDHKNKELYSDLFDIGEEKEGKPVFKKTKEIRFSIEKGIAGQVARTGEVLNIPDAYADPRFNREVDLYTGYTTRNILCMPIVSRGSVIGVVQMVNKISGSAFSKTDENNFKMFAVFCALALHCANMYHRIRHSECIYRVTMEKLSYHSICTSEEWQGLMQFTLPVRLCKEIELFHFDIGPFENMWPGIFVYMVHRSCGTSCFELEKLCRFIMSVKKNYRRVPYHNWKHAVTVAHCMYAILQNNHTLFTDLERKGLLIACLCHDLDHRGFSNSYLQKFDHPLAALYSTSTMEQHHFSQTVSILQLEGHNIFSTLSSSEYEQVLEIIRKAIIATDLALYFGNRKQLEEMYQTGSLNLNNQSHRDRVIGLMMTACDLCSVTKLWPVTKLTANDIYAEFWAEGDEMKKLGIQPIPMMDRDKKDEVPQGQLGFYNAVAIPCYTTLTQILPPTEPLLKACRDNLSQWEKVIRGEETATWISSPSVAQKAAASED
Source text: We therefore defined the structure activity relationship (SAR) of PPV relative to two assays: inhibition of cellular OCR by Seahorse XE assay, and inhibition of PDE10A by purified enzyme activity (PDE10A activity assay, BPS Bioscience). […] Because the top portion of PPV was a planar structure like that of rotenone, we decided to focus our attention on the lower portion of the molecule.

MC38 colorectal tumor = test: MC38 colorectal tumors in C57Bl6 mice, sensitization to anti PD-1; assay type: in vivo, mouse
Protocol: MC38 tumors grown in C57B16 mice were treated as indicated with irrelevant antibody, anti PD-1, or anti PD-1 after PPV or SMV32 n=5-7, P=<0.05* for PPV and <0.01** for SMV32.
Papaverine and SMV32 enhance PD-1 checkpoint blockade immunotherapy for cancer treatment. Because of the literature describing the immunomodulatory effects of hypoxia^(24-27), we hypothesized that reducing hypoxia may also enhance tumor lymphocyte infiltration and function and improve immune-mediated tumor cell killing. As those of skill in the art recognize, there is a large body of literature and research on increase the supply side of the hypoxia equation, but it has been heretofore an unexpected approach to decrease the tri demand side of the hypoxia equation. We tested tumors grown from the relatively immune-sensitive syngeneic MC38 colorectal tumor line in immuno-competent C5713116 mice. […] In a second cohort, we implanted 1×10^6 cells/mouse and after 5 days, when tumors were 50-100 mm^3, they were randomized into four groups. Therapy was started with either control rat IgG antibody, or a suboptimal dose of anti PD-1(CD279) blocking monoclonal antibody (BioXCell, clone 29F.1A12, 100 μg ip every 3 days).

CMT167 flank lung tumors = CMT167 flank lung tumors in C57Bl6 mice, sensitization to anti PD-1; assay type: in vivo, mouse; conditions: given 16 hours prior to sub-optimal anti-PD-1, days 10 and 13
Protocol: C57B16 mice bearing CMT167 flank lung tumors were treated as indicated on days 10 and 13 and relative volume followed.
There are reports in the literature indicating ways that hypoxia affects immune functions of lymphocytes, MDSCs and T regulatory cells infiltrating in the tumor.

LLC tumor = test: Lewis Lung Carcinoma (LLC) PD-1 blockade resistant tumor model; assay type: in vivo, mouse; conditions: treated on days 5, 8
Protocol: LLC tumor bearing mice were treated as indicated on days 5, 8 and relative growth followed. P=NS for PD-1 vs PPV->PD1, 0.04 for PD-i vs SMV32->PD-1.
Finally, as a rigorous test of anti-hypoxia agents as immuno-sensitizers of model tumors grown in mice, we next tested the PD-1 blockade resistant tumor model Lewis Lung Carcinoma (LLC). These tumors have been reported to be refractory to even full dose (200 ug/mouse) PD-1 blocking antibody.

[2] = system: orthotopic MP2 pODD tumors; test: in vivo bioluminescent imaging, orthotopic MP2 pODD tumors; design: species or system mouse; conditions: tail vein injection
Protocol: (§2) Orthotopic Panreatic Xenografts. MP2 PD AC cells (1×10^6) or the indicated derivates were implanted in immune-deficient athymic nu/nu mice following fACLIC approved protocols. Briefly, an incision was placed in the right flank of anesthetized animals the spleen and pancreas liberated. Cells were mixed 1:1 with Matfigel and implanted in the tail of the pancreas in 10 μl. Incision was sutured in 2 layers, animals given long lasting analgesics, and allowed to recover from anesthesia. Mice were returned to housing for post-op care and monitored daily for 4 days. Animals were checked weekly after that by palpation to determine tumor growth.
(§3) In vivo bioluminescent imaging. All animal experiments were performed according to protocols approved by the OSU institutional IAGLIC review (protocol #201200000124-R2), with daily veterinarian observation. For heterotopic flank tumor experiments, 1×10^6 HeLa pODD or 5×10^6 MP2 cells were injected subcutaneously (s.c.) into the flanks of 6-wk-old female (HeLa pODD) or male (N1P2 pODD or MP2 CMV) immunocompromised athymic nu/nu mice. […] Mice were anesthetized with 1.5% isoflurane and bioluminescence was measured every two minutes for the period of 25 minutes to identify peak response of each mouse to D-luciferin. Bioluminescent data were analyzed using living Image software (Perkin Elmer Inc) and calculated as photon flux/sec. […]

[3] = system: orthotopic MP2 CMV tumors; test: in vivo bioluminescent imaging, orthotopic MP2 CMV tumors; design: species or system mouse; conditions: single dose of 2 mg/kg by tail vein, up to 6 hours post injection
Protocol: as §2, §3

HeLa pODD flank tumors = test: in vivo bioluminescent imaging, HeLa pODD flank tumors; design: species or system mouse; conditions: 4 mg/kg by tail vein
Protocol: In vivo bioluminescent imaging. All animal experiments were performed according to protocols approved by the OSU institutional IAGLIC review (protocol #201200000124-R2), with daily veterinarian observation. For heterotopic flank tumor experiments, 1×10^6 HeLa pODD or 5×10^6 MP2 cells were injected subcutaneously (s.c.) into the flanks of 6-wk-old female (HeLa pODD) or male (N1P2 pODD or MP2 CMV) immunocompromised athymic nu/nu mice. Replicate experiments with groups of 4-6 mice were used for statistical reproducibility. Caliper measurements of opposing diameters were used to calculate the tumor volumes using the modified ellipsoidal formula: tumor volume=(length×width^2)[23]. Upon reaching 100 mm^3, the animals were given 100 mg/kg D-luciferin intraperitoneally and bioluminescence images were captured using IVIS In Vivo Imaging System Lumina II (Perkin Elmer Inc). Mice were anesthetized with 1.5% isoflurane and bioluminescence was measured every two minutes for the period of 25 minutes to identify peak response of each mouse to D-luciferin. Bioluminescent data were analyzed using living Image software (Perkin Elmer Inc) and calculated as photon flux/sec. Obtained individual photon flux peak values were then normalized to baseline for each mouse and averaged per group. […]

[4] = system: spontaneous canine soft tissue sarcoma; test: BOLD MRI of spontaneous canine soft tissue sarcoma; assay type: in vivo, dog; conditions: for fraction of tumors responding well (T2* increase): one hour
Protocol: BOLD MRI analysis of canine tumors. Canine patients with primary sarcomas were enrolled in a trial to evaluate the effects of papaverine delivered at a dose of 1 or 2 mg/kg using ire blood oxygen level dependent (BOLD) magnetic resonance imaging (MRI). Dogs were anesthetized with isoflurane in medical air to effect on the bed of a Philips ingenia 3.071 UR scanner. They were first imaged with T1- (TR: 700ms, TE: 9ms, resolution 0.3×0.3×3 mm) and T2-weighted (TR: 3000 ms, TE: 80ms, resolution 0.4×0.4×3 mm) scans in transaxial, coronal, and sagittal orientations to acquire data covering the extent of the tumor. BOLD data were acquired as a series of 60 repeats of a volumetric echo-planar T2-weighted sequence (TR: 3000 ms, TE: 35 ms, resolution 1.6×1.6×4 mm) collected over a period of 3 minutes. In addition, a single slice fast field echo (FIFE) sequence (resolution 0.5×0.5×4 mm) was used to acquire 8 images at echo times from 5 to 75 ms, allowing fitting of pixel T2* values. After these acquisitions, papaverine was delivered intravenously and the BOLD and FEE data were acquired again one hour post-administration. All data were analyzed using the RT Image software package. BOLD data were registered using an affine transformation and percent signal change was calculated on a per-pixel basis: T2* values were fit on a pixel-by-pixel basis using a Levenberg-Marquardt least squares fit to a monoexponential decay function.

SMILES: COC(=O)CNC(=O)C(=O)OC [DMOG, dimethyloxalyglycine]
- increase of pODD-Luc signal [1]: 2.2 ×
- luciferase signal response (MP2 CMV cells): unresponsive
- photon flux (MP2 pODD flank tumors; 4 mg intraperitoneally, 4 hours post injection): significant increase of photon flux

SMILES: COc1ccc(Cc2nccc3cc(OC)c(OC)cc23)cc1OC [PPV, papaverine]
- PDE inhibition IC25 (PDE10A): 650 nM
- effect on PD-1 blockade (MC38 colorectal tumor; 2 mg/kg iv 16 hours prior to suboptimal anti PD-1 (100 μg ip every 3 days)): enhance the effectiveness of suboptimal PD-1 blockade
- tumor growth, compound alone (MC38 colorectal tumor; repeated dosing, no antibody): no effect on tumor growth
- tumor growth delay (CMT167 flank lung tumors): significant tumor growth delay
- therapeutic effect, compound first and PD-1 antibody second (LLC tumor): no therapeutic benefit
- photon flux (MP2 pODD flank tumors; intraperitoneal delivery of 2 mg/kg): did not reduce the photon flux
- reduction in photon flux compared to vehicle [2]: 45%
- CMV luciferase activity vs vehicle [3]: no difference
- photon flux reduction, dose comparison (HeLa pODD flank tumors): greater photon flux reduction than the 2 mg/kg dose
- fraction of tumors responding well (T2* increase) ([4]; 1 mg/kg IV): 1/4
- fraction of tumors responding well (T2* increase) ([4]; 2 mg/kg IV): 3/5
- tumor oxygenation ([4]; 1 or 2 mg/kg IV): increases oxygenation
